Results reported in paper PMC4414146, “PACE4 inhibitors and their peptidomimetic analogs block prostate cancer tumor progression through quiescence induction, increased apoptosis and impaired neovascularisation” (Oncotarget, 2015).
Where two headings read alike, the source gives them in different places. Where a SMILES comes first, the peptide text is derived from it. [ ]: non-standard residue; d: D form. The star is where a group is joined. NOTA = O=C(O)CN1CCN(CC(=O)O)CCN(CC(=O)*)CC1; NH(4-amidinobenzyl) = N=C(N)c1ccc(CN*)cc1

What was measured:
LNCaP xenograft [1] = experiment: LNCaP xenograft, systemic (iv) administration; type: in vivo, Nu/Nu male mice; conditions: daily 2 mg/kg iv; similar in control group
Description: For tumor implantation, trypsin-harvested LNCaP cell suspension was mixed with equal volume of matrigel (BD Biosciences, Bedford, MA) on ice and subcutaneously injected (200 μL) at 4 different sites (left/right hip and left/right shoulder) on Nu/Nu male mice (Charles River Laboratories, LaSalle, Canada) at density of 2 million cells/site. Tumors were periodically measured and the tumor volumes were calculated from the equation: Length•width^2•π/6. When tumors were fully formed and palpable, mice were divided into treatment groups. For intratumoral administration of the compound, 20 μL of peptides (2.5 μg/μL) or vehicle (5% Dimethyl sulfoxide in sterile saline) was administered directly into the tumor at interval of 48 hours. For intra-venous administration experiments, 100 μL of peptide solution (2 mg/kg) or vehicle (saline) was administered through tail vein at interval of 24 hours. The total tumor volume per animal was normalized using the following formula: (total tumor volume/total tumor volume at day 27 × 100). Blood sampling (50–75 μL) from saphenous vein was performed weekly and plasma was stored at −80°C for Prostate-specific antigen (PSA) serum levels determination using a PSA EIA assay (ClinPro International, USA). Mice were housed under pathogen-free conditions and manipulations were performed in a biosafety cabinet. […]

[2] = tested on: DU145 prostate cancer cell line; type: cell-based; conditions: 72 h
Description: (§1) Cell lines were obtained from ATCC and maintained in RPMI-1640 5% FBS (DU145) and 10% FBS (LNCaP). For MTT proliferation assays, peptides were added 24 hours after seeding in 96-well plates as previously described and incubated 72 hours prior to addition of MTT reagent (Sigma-Aldrich, Canada) at final concentration of 1 mg/mL [21, 22]. Formazan salt was solubilized with 100 μL Isopropanol: HCl (24:1N) and metabolic activity was normalized relatively to vehicle-treated cells (Sterile bidistilled water). IC50 were determined using Prism 5.0 (GraphPad Software, USA).

[3] = tested on: LNCaP prostate cancer cell line; type: cell-based; conditions: 72 h
Description: as §1

[4] = Ex vivo plasmatic stability assay; type: in vitro ADME; conditions: both sexes, CD1; ex vivo mouse plasma; read-out: T½ plasma (converted)
Description: (§2) LNCaP cell-based stability assays were performed in Poly-(L)lysine coated 96-wells plates seeded at a density of 1,500 cells/wells. 100 μg of peptides were added 24 hours after plating without media change. Media was collected and mixed with 5 μL of trifluororacetic acid 5% to stop peptide degradation. Ex vivo plasmatic stability assays were performed as previously described. Briefly, compounds (0.5 μg/μL) were incubated with CD1 mouse plasma from mixed-sex animals collected with heparin sodium (Novi, USA). Reaction was stop by addition of 150 μL guanidine HCl and 300 μL of acetonitrile and peptides were extracted by centrifugation. For both in vitro and ex vivo stability assays, peptide stability was assessed from reverse phase HPLC and percentage of remaining peptide was calculated from area under curve and normalized to time 0.

[5] = Pharmacokinetic assay, intravenous 2 mg/kg, LC-MS/MS; type: in vivo; conditions: mouse, plasma, CD1 mice; for AUC: read-out: AUC calculated; for half-life: read-out: Half-life (in vivo plasma); for Vd: read-out: Volume of distribution
Description: To determine pharmacokinetic profiles of peptides, a single dose of 2 mg/kg was administered into systemic circulation from tail vein of CD1 mice (n = 4 animal/peptide). Blood was micro sampled on individual mouse at time 2.5, 5, 10, 20, 30 and 60 minutes. Plasma was collected by centrifugation and proteins were cleared from plasma using acetonitrile precipitation and supernatant was filtered using 0.2 μm PVDF centrifugal device (Canadian Life Science, Canada). Sample were analysed at PhenoSwitch Bioscience (Sherbrooke, Canada) by LC-MS/MS on a TripleTOF 5600 mass spectrometer (ABSciex, USA) equipped with DuoSpray source. Further information on mass spectrometry analyses and parameters used are presented in supplementary material.

[6] = LNCaP cell-based peptide stability assay; type: in vitro ADME; conditions: human, LNCaP cells, HPLC, read-out: T½ LNCaP cells (converted)
Description: as §2

[7] = target: T1, human recombinant and soluble PACE4 (Homo sapiens, UniProt P29122); experiment: Enzymatic assay, inhibition constant toward PACE4; type: biochemical
T1 construct: made in house; host or cells: S2 insect cells (Drosophila Schneider 2)
T1 sequence (P29122 150-969): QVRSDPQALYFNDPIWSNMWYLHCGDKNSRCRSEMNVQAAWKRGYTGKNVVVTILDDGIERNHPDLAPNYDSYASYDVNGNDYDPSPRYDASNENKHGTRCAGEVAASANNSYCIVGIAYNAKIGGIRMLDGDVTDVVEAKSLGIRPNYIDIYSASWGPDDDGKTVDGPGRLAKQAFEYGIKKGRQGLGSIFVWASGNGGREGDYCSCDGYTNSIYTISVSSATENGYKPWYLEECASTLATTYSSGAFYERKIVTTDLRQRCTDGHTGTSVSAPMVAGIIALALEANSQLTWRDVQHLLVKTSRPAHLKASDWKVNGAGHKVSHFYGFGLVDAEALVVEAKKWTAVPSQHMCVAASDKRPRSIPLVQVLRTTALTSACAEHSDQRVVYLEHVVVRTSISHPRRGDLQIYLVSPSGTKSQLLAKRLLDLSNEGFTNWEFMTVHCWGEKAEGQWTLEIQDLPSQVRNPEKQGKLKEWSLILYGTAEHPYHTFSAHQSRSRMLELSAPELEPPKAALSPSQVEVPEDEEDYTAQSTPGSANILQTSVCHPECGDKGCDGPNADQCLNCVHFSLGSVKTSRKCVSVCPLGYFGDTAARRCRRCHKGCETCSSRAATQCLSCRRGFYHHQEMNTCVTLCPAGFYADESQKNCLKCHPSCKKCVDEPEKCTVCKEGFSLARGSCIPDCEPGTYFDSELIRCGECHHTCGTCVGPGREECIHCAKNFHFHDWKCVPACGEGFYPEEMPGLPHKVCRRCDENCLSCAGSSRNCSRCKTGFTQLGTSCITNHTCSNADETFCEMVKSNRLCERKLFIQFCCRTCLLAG
Description: Inhibition constants (Ki) were determined using human recombinant and soluble PACE4 and furin produced in S2 insect cells and purified as previously described. The enzymatic assays were performed as described.

[8] = set-up: method as in Kwiatkowska et al [22]; conditions: ex vivo mouse plasma; ref Kwiatkowska et al [22]; cited from earlier work
[9] = target: T1, human recombinant and soluble PACE4; conditions: ref Kwiatkowska et al [22]; cited from earlier work
LNCaP xenograft [10] = experiment: LNCaP xenograft, intratumoral administration; type: in vivo, Nu/Nu male mice; conditions: intra-tumoral, 50 μg/tumor per 48 h; vehicle 400 ± 100%
Description: For tumor implantation, trypsin-harvested LNCaP cell suspension was mixed with equal volume of matrigel (BD Biosciences, Bedford, MA) on ice and subcutaneously injected (200 μL) at 4 different sites (left/right hip and left/right shoulder) on Nu/Nu male mice (Charles River Laboratories, LaSalle, Canada) at density of 2 million cells/site. Tumors were periodically measured and the tumor volumes were calculated from the equation: Length•width^2•π/6. When tumors were fully formed and palpable, mice were divided into treatment groups. For intratumoral administration of the compound, 20 μL of peptides (2.5 μg/μL) or vehicle (5% Dimethyl sulfoxide in sterile saline) was administered directly into the tumor at interval of 48 hours. For intra-venous administration experiments, 100 μL of peptide solution (2 mg/kg) or vehicle (saline) was administered through tail vein at interval of 24 hours. […] Blood sampling (50–75 μL) from saphenous vein was performed weekly and plasma was stored at −80°C for Prostate-specific antigen (PSA) serum levels determination using a PSA EIA assay (ClinPro International, USA). Mice were housed under pathogen-free conditions and manipulations were performed in a biosafety cabinet. All experimental procedures were in accordance with the Canadian Council on Animal Care.

[11] = tested on: LNCaP prostate cancer cell line; conditions: MTT assay; ref Kwiatkowska et al [22]; cited from earlier work
[12] = tested on: DU145 prostate cancer cell line; conditions: MTT assay; ref Kwiatkowska et al [22]; cited from earlier work

Compound | clearance [5] | AUC [5] | half-life [5] | Vd [5] | half-life [6] | T½ plasma [8] | further results
CC(C)C[C@H](NC(=O)[C@H](CC(C)C)NC(=O)[C@H](CC(C)C)NC(=O)[C@@H](CC(C)C)NC(=O)CN1CCN(CC(=O)O)CCN(CC(=O)O)CC1)C(=O)N[C@@H](CCCNC(=N)N)C(=O)N[C@H](C(=O)N[C@@H](CCCCN)C(=O)NCc1ccc(C(=N)N)cc1)C(C)C [NOTA-[DLeu]LLLRVK-Amba] ({NOTA}-[dL]LLLRVK-{NH(4-amidinobenzyl)}) | – | – | – | – | – | – | Ki PACE4 [7]: 0.006 ± 0.002 µM
CC(=O)N[C@@H](CC(C)C)C(=O)N[C@@H](CC(C)C)C(=O)N[C@@H](CC(C)C)C(=O)N[C@@H](CC(C)C)C(=O)N[C@@H](CCCN=C(N)N)C(=O)N[C@H](C(=O)N[C@@H](CCCCN)C(=O)NCc1ccc(C(=N)N)cc1)C(C)C [Ac-LLLLRVK-Amba] (Ac-LLLLRVK-{NH(4-amidinobenzyl)}) | – | – | – | – | > 72 h | 12 ± 2 h | –
Ac-LLLLRVKR-NH2 [Ac-LLLLRVKR-NH2] | 0.6 ± 0.1 mL/min | 1670 ng·h/mL | 8 ± 5 min | 0.008 ± 0.007 L | 21 ± 2 h | 5.1 ± 0.8 h | –
CC(=O)N[C@@H](CC(C)C)C(=O)N[C@@H](CC(C)C)C(=O)N[C@@H](CC(C)C)C(=O)N[C@@H](CC(C)C)C(=O)N[C@@H](CCCNC(=N)N)C(=O)N[C@H](C(=O)N[C@@H](CCCCN)C(=O)NCc1ccc(C(=N)N)cc1)C(C)C [Ac-LLLLRVK-Amba] (Ac-LLLLRVK-{NH(4-amidinobenzyl)}) | – | – | – | – | – | – | mean tumoral volume at day 59 compared to day 25 (LNCaP xenograft [10]): 100 ± 30%; IC50 [11]: 40 ± 15 µM; IC50 [12]: 25 ± 10 µM

Continued, in another order:

clearance [5] | AUC [5] | half-life [5] | Vd [5] | half-life [6] | Compound | T½ plasma [8] | further results
0.5 ± 0.1 mL/min | 2170 ng·h/mL | 9 ± 3 min | 0.006 ± 0.004 L | > 72 h | CC(=O)N[C@H](CC(C)C)C(=O)N[C@@H](CC(C)C)C(=O)N[C@@H](CC(C)C)C(=O)N[C@@H](CC(C)C)C(=O)N[C@@H](CCCNC(=N)N)C(=O)N[C@H](C(=O)N[C@@H](CCCCN)C(=O)NCc1ccc(C(=N)N)cc1)C(C)C [Ac-[DLeu]LLLRVK-Amba] (Ac-[dL]LLLRVK-{NH(4-amidinobenzyl)}) | – | body weight loss (LNCaP xenograft [1]): 10%; IC50 [2]: 25 ± 10 µM; IC50 [3]: 40 ± 10 µM; half-life at 0.5 μg/μL [4]: 18 ± 3 h
– | – | – | – | 38 ± 8 h | CC(=O)N[C@H](CC(C)C)C(=O)N[C@@H](CC(C)C)C(=O)N[C@@H](CC(C)C)C(=O)N[C@@H](CC(C)C)C(=O)N[C@@H](CCCNC(=N)N)C(=O)N[C@H](C(=O)N[C@@H](CCCCN)C(=O)N[C@@H](CCCNC(=N)N)C(N)=O)C(C)C [Ac-[DLeu]LLLRVKR-NH2] | 8 ± 1 h | Ki PACE4 [9]: 0.023 ± 0.001 µM
